# Reference: PMC10658920 (The Journal of Pharmacology and Experimental Therapeutics, 2023)
# Where “and” joins values, the source holds several entries; their conditions need not be identical. Equal entries are not always repeated. Entries after “also recorded” stand apart in the source; their conditions may differ. Where two headings read alike, the source gives them in different places.
# What was measured:
# [1] = Clinical pharmacokinetic study, plasma and urine, noncompartmental analysis; settings: for tmax: median [range]
# [2] = Apparent permeability, apical to basolateral, Caco-2 cell monolayers; format: in vitro ADME; settings: human
# [3] = test system: CYP3A; assay: Allosterism of midazolam hydroxylation in HIMs by berberine; settings: for effect on 1’-hydroxymidazolam formation: reversible design
# [4] = test system: CYP3A; assay: IC50 shift experiment, midazolam 1’-hydroxylation in human intestinal microsomes
# [5] = both, human, in vivo
# [6] = Dissolution of goldenseal capsules in FaSSIF; format: physicochemical; settings: two goldenseal capsules in 250 ml FaSSIF, within 20 minutes
# [7] = test system: CYP3A; settings: HLMs, 2020, cited from earlier work
# [8] = test system: CYP3A; settings: cited from earlier work
# [9] = clinical; settings: both, human, in vivo, AUC0–12.5h, Observed
# [10] = Time-dependent inhibition of midazolam 1’-hydroxylation in HIMs; settings: microsomal incubation mixture, 37 °C, aqueous buffer, kinetic from dmso stock
# [11] = test system: CYP3A; assay: as above; settings: HIMs
# [12] = Baseline: oral midazolam 2.5 mg alone; median [range]; ref Nguyen et al., 2021; cited from earlier work
# [13] = Baseline: oral midazolam 2.5 mg alone, geometric mean [90% CI]
# [14] = 6-hour blood collection, ref Gurley et al., 2008
compound,measurement,setting,value
"OCc1ncc2n1-c1ccc(Cl)cc1C(c1ccccc1F)=NC2 [1’-Hydroxymidazolam, 1’-hydroxymidazolam]",AUC0–12h,[1]; [13],29.0 [24.4–34.4] nM*h
same,AUCinf,[1]; [13],33.1 [27.9–39.0] nM*h
same,CLR,[1]; [13],0.17 [0.14–0.20] n = 15 l/h
same,Cmax,[1]; [13],12.3 nM
same,MP ratio (metabolite AUC0–12h to midazolam AUC0–12h),[1]; [13],0.47 [0.40–0.54]
same,t1/2,[1]; [13],6.25 [5.27–7.40] h
same,tmax,[1]; Baseline: oral midazolam 2.5 mg alone,0.67 [0.33–1.00] h
same,tmax,"[1]; Chronic exposure: goldenseal 1 g thrice daily for 6 days, midazolam 2.5 mg oral",0.67 [0.33–1.50] h
COc1ccc2cc3[n+](cc2c1OC)CCc1cc2c(cc1-3)OCO2 [berberine],Papp at 10 μM,[2],0.18 ×10⁻⁶ cm/s
same,effect on midazolam 4-hydroxylation,[3]; berberine 5–100 μM,inhibited
same,effect on 1’-hydroxymidazolam/4-hydroxymidazolam ratio,[3]; particularly at midazolam ≤5 μM,concentration-dependent increase
same,effect on 1’-hydroxymidazolam formation,[3]; midazolam ≤5 μM,activated
same,effect on 1’-hydroxymidazolam formation,[3]; midazolam ≥50 μM,inhibited
same,leftward shift in IC50 after preincubation with NADPH,[4]; HIMs,not observed
same,"IC50, midazolam 1’-hydroxylation","[4]; HIMs 0.05 mg/ml, 30 min preincubation in absence of NADPH, 4 μM midazolam",apparent activation; also recorded: unattainable
same,"AUC0–12.5h, Observed",[5],7.81 [6.17–9.89] nM*h
same,total content dissolved,[6],More than 80%
same,"TDI of CYP3A activity (midazolam 1’-hydroxylation), in words","[7]; ref Chatterjee and Franklin, 2003, McDonald et al.",demonstrated TDI
same,IC50 (reversible inhibition),[7]; ref McDonald et al.,unattainable
same,kinact/KI,[7]; ref McDonald et al.,21.7 M⁻¹ s⁻¹
same,AUC(0-inf),"[1]; both, human, plasma, oral",46.7 nM·h
same,increase in midazolam AUC,"[8]; berberine 300 mg thrice daily × 14 days, ref Guo et al., 2012",40%
same,AUC(0-t),[9],4.58 nM·h
same,solubility,[10],≤ 500 µM
same,inhibition of midazolam 1’-hydroxylation (in words),[11],concentration-dependent and time-dependent inhibition
same,kinact/KI,[11],4.07 M⁻¹ s⁻¹ and ~4 M⁻¹ s⁻¹
same,KI,[11]; time-dependent inhibition of midazolam 1’-hydroxylation,> 250 µM and 250 µM
same,kinact,"[11]; human, human intestinal microsomes, probe midazolam (40 μM), 1'-hydroxylation, kinact, time-dependent inhibition of midazolam 1’-hydroxylation",~0.001 s⁻¹
Cc1ncc2n1-c1ccc(Cl)cc1C(c1ccccc1F)=NC2 [Midazolam],tmax,[12],0.67 [0.33–1.00] h
same,CL renal,"[1]; both, human, plasma and urine, po",1.08 mL/min
same,midazolam half-life at baseline,[8]; [14],2.0 h
same,midazolam half-life in the presence of goldenseal,[8]; [14],3.1 h
"Cc1ncc2n1-c1ccc(Cl)cc1C(c1ccccc1F)=NC2O (centres unmarked) [4-Hydroxymidazolam, 4-hydroxymidazolam]",CLR,[1]; [13],Concentrations of metabolites in urine were below the detectable limit
same,MP ratio (metabolite AUC0–12h to midazolam AUC0–12h),[1]; [13],0.045 [0.039–0.051]
same,AUC(0-t),"[1]; both, human, plasma, po, 2.5 mg, AUC0–12h, Baseline: oral midazolam 2.5 mg alone, geometric mean [90% CI]",2.78 nM·h
same,half-life,"[1]; both, human, plasma, po, 2.5 mg, t1/2, Baseline: oral midazolam 2.5 mg alone, geometric mean [90% CI]",1.68 h
same,tmax,"[1]; both, human, plasma, po, 2.5 mg, tmax, Baseline: oral midazolam 2.5 mg alone",1 h
same,tmax,"[1]; both, human, plasma, po, tmax, Chronic exposure: goldenseal 1 g thrice daily for 6 days, midazolam 2.5 mg oral",1 h
